Non-standard residues stand in square brackets, D forms with d. Residues, ends and D or L forms follow the SMILES beside them. *: point of attachment. Npys = O=[N+]([O-])c1cccnc1S*; Leu(ol) = CC(C)C[C@H](N)CO; Mpa = O=C(O)CCS
melting point [°C] | SMILES
192 to 193 | Cn1nc(-c2ccccc2)c(CNc2ccccc2C(=O)O)c1Cl
119 to 120 | CC(=O)N(C)c1ccc(OCc2nc3ccccc3s2)cc1
190 to 191 | Cc1c(CC(=O)O)c2cc3c(cc2n1C(=O)C=Cc1ccccc1)OCO3
157 to 159 | COC(=O)C[C@@H]1C[C@@H](COc2ccc(-c3ccc(C(=N)NC(=O)OCc4ccccc4)cc3)cc2)N(c2ccccc2)C1=O
218 to 220 | O=Cc1c(O)cccc1OCc1ccccc1C(=O)O
127 to 130 | CCC(C)(C)OC(=O)NC(C)(Cc1c[nH]c2ccccc12)C(=O)NCCCCc1ccccc1 (configuration not stated)
104 to 106 | CC(CCC1(C(N)=O)c2ccccc2-c2ccccc21)N(C)C (configuration not stated)
220 | CCCCc1nn(Cc2ccc(C(=O)O)cc2)c2ccccc2c1=O
111 | CCOC(=O)N1CCc2nc3ccccc3c(N3CCCC3)c2CC1
125 to 126 | OCc1nn(-c2ccc(Cl)cc2)c2c1CCCC2
140 to 142 | Cc1cccc(C)c1N1C(=N)C(C)N(c2c(C)cccc2C)C1C(=O)OCc1ccc(Cl)cc1 (configuration not stated)
109 to 112 | CC(C)C[C@@H](CO)NC(=O)[C@H](Cc1c[nH]cn1)NC(=O)[C@H](Cc1ccccc1)NC(=O)CCSSc1ncccc1[N+](=O)[O-] ([Mpa](Npys)FH[Leu(ol)])
96 to 98 | COc1ccc(C(=O)c2ccccn2)cc1
155 to 157 | O=[N+]([O-])c1ccc(NS(=O)(=O)c2ccccc2)c(Cl)c1
194 to 195 | CCOC(=O)c1nnc(-c2cc3cc(Oc4ccc(S(C)(=O)=O)cc4)cc(OCc4ccccc4)c3[nH]2)s1
96 | CCOC(=O)c1ccc(C(C)=Cc2ccc3ccccc3c2)cc1
88 to 102 | CNC(=O)C(Cc1ccc(OC)cc1)NC(=O)C(C)(CC(C)C)c1cccc(C(F)(F)F)c1S (configuration not stated)
215 to 216 | Nc1nnc(-c2ccc3ncn(-c4cccc(OC(F)(F)F)c4)c3c2)o1
170 to 174 | CCCNc1nc(NCc2ccc(NC(=O)c3ccc(F)cc3)cc2)c2ccc(C)cc2n1
96 to 98 | COc1ccc(Nc2ccn(-c3ccccc3)n2)cc1
217 to 218 | COc1cc2ncnc(N3CCN(C(=S)NCc4ccc(Br)cc4)CC3)c2cc1OC
167 to 168 | CN(c1ccccc1)c1nc(Cl)nc2sccc12
43 to 48 | CC(c1ccccc1)c1cccnn1 (configuration not stated)
190 to 192 | Cc1onc(-c2c(Cl)cccc2Cl)c1CN1C(=O)C2(COc3cc4c(cc32)OCO4)c2ccccc21 (configuration not stated)
205 | Cc1ccc(S(=O)(=O)C(=CNc2ccc(Br)cn2)C(=O)c2ccccc2)cc1
171 to 174 | Cc1onc(-c2ccccc2)c1-c1ccc(S(N)(=O)=O)cc1

melting point [°C] | SMILES
247 | COC[C@H](Cc1ccccc1)NC(=O)[C@@H](CC(=O)O)n1ccc(-c2ccc(-c3ccccc3)cc2)c1
169 | CCOC(=O)C1=C(CC)Nc2n[nH]cc2C1c1ccccc1OC (configuration not stated)
150 | COCC1CN(c2ccc3cc(OCc4ccccc4)ccc3c2)C(=O)O1 (configuration not stated)
229 to 230 | COc1ccc(-c2c(C(=O)O)c3ccccc3n2C)cc1
223 to 225 | O=c1[nH]nc2n1-c1ccc(Cl)cc1C(c1ccccc1F)=CC2
256 to 258 | Cc1cc(F)c2ncc(C(=O)NNc3ccc(Cl)cc3)c(O)c2c1
100 to 104 | CCCc1nn(C)c2c(=O)n(CCOc3ccc(NC(C)=O)cc3)c(CC)nc12
64 to 66 | CC(C)OC(=O)C(C(=O)O)c1ccccc1 (configuration not stated)
216 to 217 | Cn1ncc2c1-c1c(Oc3ccc(OCc4ccc(Cl)cc4)cc3)sc(C(N)=O)c1CC2
191 to 192 | CC1(C)C(=O)N(c2ccnc(NC(=O)NCc3ccccn3)c2)c2ccccc21
238 to 239 | CCCC(=O)NCc1c(-c2ccc(C)cc2)nc2ccc3ccccc3n12
136 to 140 | Cn1c(=O)nc(-c2ccccc2)c2cc(Cl)sc21
123 to 124 | OCCCOc1ccc(-c2ccccc2)cc1
153 to 155 | Cc1cn(-c2ccc(NC(=O)c3ccc(Cl)c(C#Cc4ccc(NC5CCC5)nn4)c3)cc2C(F)(F)F)cn1
166 to 168 | COC(=O)c1cc2c3cccc(Cl)c3n(C)c2s1
155 to 159 | O=C1c2ccccc2C(=O)C1(O)c1ccccc1O
158 to 159 | CC[C@@H](c1ccccc1)N(Cc1ccc(C(N)=O)cc1)S(=O)(=O)c1ccc(Cl)cc1
162 to 166 | COc1ccc2c(c1)C1=NNC(c3ccncc3)C1CCC2 (configuration not stated)
173 | CC1(C)OC(=O)C(c2cccc(F)c2)=C1c1ccc(S(C)(=O)=O)cc1
166 to 169 | Nc1c(F)c(-c2ccc(Cl)cc2)nc(C=O)c1Cl
176 to 178 | O=c1[nH]c2ccc(S(=O)CCN3CCC(Cc4ccccc4)CC3)cc2o1 (configuration not stated)
235 to 238 | O=C(Nc1cccc2c(O)cccc12)c1ccc(F)c([N+](=O)[O-])c1
120 to 122 | CC(C)(C)N[C@@H]1CCc2c(ccc(OCc3ccccc3)c2C#N)[C@H]1O (relative stereo)
> 250 | NCC1Cc2cc(-c3ccccc3)cc(-c3ccccc3)c2O1 (configuration not stated)
119 to 120 | CCCCC(=O)Nc1ccccc1C(N)=O

The remaining lines, values behind:

SMILES | melting point [°C]
COC1=C(OC)C(=O)C(CCCCCCCCCC(=O)N[C@@H](CCCCN)C(=O)O)=C(C)C1=O | 107
CNC1CCN(c2ncc(C(F)(F)F)s2)C1=O (configuration not stated) | 108 to 109
C(=Nn1ccnc1N1CCOCC1)c1ccccc1 | 59 to 61
CC(=O)OC1CSC(Sc2ccc(C#N)cc2)C(OC(C)=O)C1OC(C)=O (configuration not stated) | 155
CC[C@H]1[C@@H](O)[C@H](C)C(=O)N1c1ccc(C#N)c(C(F)(F)F)c1 | 113 to 119
COCC(F)(F)c1nc2nc(C)c(F)cc2cc1C(=O)C1C(=O)C2CCC(C2)C1=O (configuration not stated) | 177 to 180
Cc1noc(NS(=O)(=O)c2cccc(F)c2)c1Br | 125 to 128
COc1cccc2c1C(=O)C(=O)N2 | 198 to 200
COCC(=O)Nc1cc(NC(=O)COC)cc(C(=O)OC)c1 | 140 to 141
CCCCCc1ccc(-c2nc(C)c(C(C)=NNC(=N)N)s2)cc1 | 210
COCCOc1ccc(CCC(=O)NS(=O)(=O)c2ccc(F)cc2)c(Oc2ncc(C(F)(F)F)cc2Cl)c1 | 136 to 138
COc1nc(C(F)(F)F)c(F)c(=O)n1-c1cc(OC(C)C)c(Cl)cc1F | 144 to 146
O=Cc1cc(=O)n2ccsc2n1 | 184 to 186
Cc1c2c(c(Oc3ccc(C(C)C)cc3)c(C)c1NC(=O)CC(C)(C)C)OC(C)(C)C2 | 148 to 149
CCOc1nc(Br)cnc1N | 84
COc1cc(F)c(C)cc1C#N | 99 to 101
Cc1nnc2ccc(-c3ccc(C(F)(F)F)cc3)nn12 | 199 to 201
ClCc1nc2nc(Cl)c(Cl)nc2s1 | 126 to 128
Cc1cc2c3c(ccc(N4CCCC4)c3c1)C(=O)N(O)C2=O | 236 to 237
CC(N)C(C)n1ncn(-c2ccc(N3CCN(c4ccc(O)cc4)CC3)cc2)c1=O (configuration not stated) | 237
COCCOc1cc(N(C)S(=O)(=O)c2ccccn2)c2[nH]c(C3=NCC(CN4CCS(=O)CC4)S3)cc2c1 (configuration not stated) | 182 to 183
COc1cc(-c2cnc3[nH]cc(C(=O)C(C)C)c3n2)cc(OC)c1OC | 189 to 190
Cc1nc2c(N)nc3c(c2n1CC(C)C)CCCC3 | 170 to 172
CCSc1c(C#N)nn(-c2c(Cl)cc(C(F)(F)F)cc2Cl)c1Br | 134 to 140
COC(=O)c1coc2ccc(C)cc12 | 40 to 41
CCOC(=O)CCc1cn(-c2ccc(C(F)(F)F)cc2)nc1OCC | 47 to 48

SMILES | melting point [°C]
CCOCN1C(C)=C(C(C)=O)C(c2cccc([N+](=O)[O-])c2)C(C(=O)OCC)=C1C (configuration not stated) | 110 to 111
Cc1cnc(NC(=O)c2cc(Oc3ccc(C(=O)N4CCC4)cc3F)cc(O[C@@H](C)CO)c2)cn1 | 172
CCCCCCCCCCCCCCOCc1ccc(C(C)=O)o1 | 61 to 62
CCOC(=O)COc1cc(O)c2c(=O)cc(-c3ccc(OC)c(OCC(=O)N4CCN(Cc5ccc(OC)c(OC)c5OC)CC4)c3)oc2c1 | 105 to 106
COc1c(Br)cc(Br)cc1CC#N | 87 to 88
COc1cc2c(cc1OC)C(Cc1cc(I)c(NC(C)=O)c(I)c1)N(C(=O)C(F)(F)F)CC2 (configuration not stated) | 218 to 219
O=C1CCCC2(c3ccccc3)NCCCN12 (configuration not stated) | 120
CCCCCC(=O)CCC1CCC(CCCCCCCC(=O)O)O1 (configuration not stated) | 26 to 28
COc1ccc(N2C(=O)C(O[Si](C(C)C)(C(C)C)C(C)C)C2c2ccco2)cc1 (configuration not stated) | 109 to 110
C=CCN1CC(=O)N(c2c(C)cccc2C)C1=S | 43 to 46
COc1ccc(C=CC(=O)c2ccco2)c(OC)c1 | 57 to 59
CCCCC#CCCOc1ccc(C=O)cc1OC | 64.5 to 65.5
CCOC(=O)C1=C(C)NC(C(OCC)OCC)=C(C(=O)OCC)C1c1ccccc1Cl (configuration not stated) | 75 to 77
COC(=O)/C=C/n1cnc2c(C)cc(C)cc2c1=O | 139 to 141
CC(=O)Oc1cc(C(=O)N2CCC(C(=O)C3CCCCC3)CC2)c([N+](=O)[O-])cc1OC(C)=O | 160 to 165
CCNC(=S)NS(=O)(=O)c1cc2c(cc1OC)OCCC2CNC(=O)c1cc(Cl)ccc1OC (configuration not stated) | 196 to 197
CCCCc1nc(I)c(CO)[nH]1 | 166
COc1ccc(C2(C#N)CCC(=NO)CC2)cc1OCC1CC1 (configuration not stated) | 75 to 77
NC(=O)c1c(C(F)(F)F)oc2cc(O)ccc2c1=O | > 310
OCc1nc2cc(Br)cnc2[nH]1 | 230 to 233
CC(=O)NCc1nc2c(N)nc(C)c(C)c2n1CC(C)C | 162 to 164
CC(=O)n1ccc(O)n1 | 191
CC(C)(C)OC(=O)N1CCN(c2cc(Cl)ccc2N)CC1 | 125 to 127
CS(=O)(=O)c1ccc(C(CC2CCC(=O)C2)C(=O)O)cc1Cl (configuration not stated) | 164 to 167
CCCc1ccc(-c2ncc(C#N)cn2)cc1 | 126
